Reference: the supplement of paper PMC10307832

Key:
Assay in all cases: relative viability (nuclei count vs DMSO), 5 days (fraction); higher = more cells survive
[1] = compound: COc1nc(N)nc2c1ncn2[C@@H]1O[C@H](CO)[C@@H](O)[C@@H]1O [Nelarabine] + COc1cccc2cc(-c3nc([C@H]4CC[C@H](C(=O)O)CC4)n4ncnc(N)c34)[nH]c12 [OSI-027] (partner 0.5 µM)
Procedure, shortened: (§1)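 Lung cancer cell lines in 1536-well plates got either a single drug or a fixed anchor-drug dose together with five library-drug doses (not always all listed) in √10 steps, by pin tool, on the day after seeding. Nuclei were counted after 5 days, and relative viability is the treated-to-vehicle ratio of nuclei counts. Values are medians of duplicate plates.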

[2] = compound: COc1nc(N)nc2c1ncn2[C@@H]1O[C@H](CO)[C@@H](O)[C@@H]1O [Nelarabine] + Cc1nc(NC(=O)N2CCC[C@H]2C(N)=O)sc1-c1ccnc(C(C)(C)C(F)(F)F)c1 [Alpelisib] (partner 2 µM)
Procedure, shortened: as §1

[3] = compound: COc1nc(N)nc2c1ncn2[C@@H]1O[C@H](CO)[C@@H](O)[C@@H]1O [Nelarabine] + O=C(CCCCCCC(=O)Nc1ccccc1)NO [Vorinostat] (partner 1 µM)
Procedure, shortened: as §1

[4] = compound: C=CCn1c(=O)c2cnc(Nc3ccc(N4CCN(C)CC4)cc3)nc2n1-c1cccc(C(C)(C)O)n1 [Adavosertib] + Cc1nc(Nc2ncc(C(=O)Nc3c(C)cccc3Cl)s2)cc(N2CCN(CCO)CC2)n1 [Dasatinib] (partner 0.075 µM)
Procedure, shortened: as §1

Cell Line | relative viability ([1]; first compound 0.01 µM) | relative viability ([1]; first compound 0.03162 µM) | relative viability ([1]; first compound 0.1 µM) | relative viability ([1]; first compound 0.3162 µM) | relative viability ([1]; first compound 1 µM) | relative viability ([2]; first compound 0.01 µM) | relative viability ([2]; first compound 0.03162 µM) | relative viability ([2]; first compound 0.1 µM) | relative viability ([2]; first compound 0.3162 µM) | relative viability ([2]; first compound 1 µM) | relative viability ([3]; first compound 0.01 µM) | relative viability ([3]; first compound 0.03162 µM) | relative viability ([3]; first compound 0.1 µM) | relative viability ([3]; first compound 0.3162 µM) | relative viability ([3]; first compound 1 µM) | relative viability ([4]; first compound 0.01 µM) | relative viability ([4]; first compound 0.03162 µM) | relative viability ([4]; first compound 0.1 µM) | relative viability ([4]; first compound 0.3162 µM)
NCI-H1734 | 0.759 | 0.609 | 0.547 | 0.582 | 0.619 | 0.746 | 0.67 | 0.709 | 0.653 | 0.704 | 0.839 | 0.704 | 0.772 | 0.766 | 0.892 | 0.53 | 0.469 | 0.464 | 0.318
LCLC-97TM1 | 0.713 | 0.483 | 0.357 | 0.527 | 0.56 | 0.277 | 0.211 | 0.216 | 0.212 | 0.26 | – | – | 0.464 | 0.819 | 0.713 | 0.881 | 0.675 | 0.886 | 0.801
HOP-62 | 0.981 | 0.866 | 0.971 | 0.941 | 0.838 | 1.12 | 1.03 | 0.942 | 0.926 | 1.07 | 0.783 | 0.618 | 0.669 | 0.708 | 0.638 | 0.693 | 0.678 | 0.644 | 0.661
NCI-H2405 | 0.722 | 0.66 | 0.471 | 0.632 | 0.624 | 0.842 | 0.794 | 0.74 | 0.647 | 0.801 | 1.2 | 0.988 | 1.05 | 1.03 | 0.886 | 0.198 | 0.217 | 0.183 | 0.206
HCC-78 | 0.306 | 0.35 | – | 0.385 | 0.372 | 0.349 | 0.336 | – | 0.349 | 0.4 | 0.601 | 0.475 | – | 0.427 | 0.556 | 0.389 | 0.44 | 0.418 | 0.401
SK-LU-1 | 0.287 | 0.267 | 0.364 | 0.396 | 0.327 | 1.36 | 0.608 | 0.87 | 1.22 | 1 | 0.789 | 0.585 | 0.924 | 0.94 | 0.845 | 0.249 | 0.158 | 0.148 | 0.136
NCI-H1915 | 0.675 | 0.666 | 0.678 | 0.706 | 0.684 | 1.2 | 1.05 | 1.11 | 1.07 | 1.06 | 0.599 | 0.544 | 0.488 | 0.573 | 0.57 | 0.325 | 0.315 | 0.352 | 0.293
NCI-H1666 | 0.874 | 0.955 | 0.89 | 0.915 | 0.908 | 0.99 | 0.917 | 0.957 | 1.05 | 0.883 | 1.03 | 1.03 | 1.18 | 1.09 | 0.964 | 0.754 | 0.821 | 0.854 | 0.733
NCI-H441 | 0.535 | 0.497 | 0.592 | 0.782 | 0.647 | 0.974 | 0.675 | 0.704 | 0.921 | 0.986 | 0.749 | 0.814 | 1.02 | 0.886 | 0.793 | 0.5 | 0.511 | 0.575 | 0.396
LC-2-ad | 0.922 | 0.879 | 0.754 | 0.81 | 0.875 | 0.959 | 0.825 | 0.937 | 0.734 | 0.928 | 0.814 | 0.738 | 0.67 | 0.721 | 0.676 | 0.539 | 0.654 | 0.582 | 0.493
LCLC-103H | 0.499 | 0.322 | 0.459 | 0.464 | 0.486 | 1.01 | 0.989 | 0.985 | 0.936 | 0.956 | 0.905 | 0.76 | 0.795 | 0.856 | 0.808 | 0.422 | 0.44 | 0.435 | 0.356
NCI-H727 | 0.565 | 0.722 | 0.534 | 0.562 | 0.695 | 0.683 | 0.572 | 0.632 | 0.625 | 0.571 | 1.24 | 1.17 | 1.13 | 1.27 | 1.19 | 0.316 | 0.478 | 0.338 | 0.301
HCC-827 | 0.741 | 0.738 | 0.76 | 0.595 | 0.65 | 0.999 | 0.848 | 0.839 | 0.784 | 0.595 | 0.595 | 0.748 | 0.639 | 0.721 | 0.64 | 0.282 | 0.284 | 0.264 | 0.282
NCI-H2023 | 0.545 | 0.397 | 0.341 | 0.416 | 0.354 | 0.634 | 0.769 | 0.559 | 0.594 | 0.55 | 0.793 | 0.821 | 0.525 | 0.71 | 0.687 | 0.584 | 0.583 | 0.471 | 0.226
